We go through 13 compounds from US6087361A, “Aryl-imidazolines and aryl-imidazoles useful as α-2 adrenergic agonists without cardiovascular side effects” (Allergan Sales, Inc., priority 1997, dated 2000).

SMILES strings stand for the structures. pKi: −log10 of the molar value.

One series deals with I2B. The experiment in a line: Receptor binding, I2B.
The target of a further series is I1 imidazoline receptor. The experiment in a line: I1 imidazoline receptor binding assay, 3H-clonidine, bovine VLM membranes. The following applies: 25° C., 50 min. As to the method: Fresh bovine brain stems were obtained from a local slaughter house. After removal of pia-arachnoid, the medulla was isolated by dissecting the brain stem about 1 cm posterior and 1 cm caudal to the obex. The ventral quadrants of the medulla excluding the pyramids were used as the VLM. For each preparation, 30 to 40 VLM were used. Initial homogenization was performed in 20 volumes of 5 mM HEPES buffer (pH 7.4 at 4° C.) containing 250 mM sucrose, 50 uM Calpain I inhibitor (Boehginer Mannheim, Indianapolis, Ind.), 100 uM 1,10-phenanthroline (Sigma, St. Louis, Mo.) and 50 uM Pefabloc (Boehginer Mannheim, Indianapolis, Ind.), using Virtis homogenizer at setting 7 with three 10 second pulses, followed by three passes in a teflon-glass tissue homogenizer. The inhibitors were added to prevent degradation by proteases and peptidases. The homogenates were then centrifuged at 1000× g for 10 min and the resulting pellets were re-homogenized and centrifuged. Supernatants resulted from both runs were combined and centrifuged for 20 min at 48000× g. The pellets obtained were resuspended in a teflon-glass homogenizer in 50 mM Tris-HCl with 5 mM EDTA (pH 7.7 at 4° C.), centrifuged, and resuspended in 50 mM Tris-HCl with 25 mM NaCl, pH 7.7 at room temp. To remove endogenous ligands, the homogenate was incubated 30 min at room temp before it was centrifuged for 20 min at 48000× g. The pellets were then washed with 50 mM Tris-HCl buffer, (pH 7.4 at 4° C.) and loaded on top of 5 mM HEPES/0.85 M sucrose (pH 7.4 at 4° C.). Pellets obtained after centrifugation at 48000× g for 20 min were saved. The fatty connective tissue on the top layer was discarded. The partially purified VLM membrane pellets were then washed twice with 50 mM Tris-HCl, pH 7.7 at 4° C., flash frozen in dry ice/acetone slush, and stored at -100° C. until use. Receptor binding experiments were performed within days after the membrane preparation.
I1 imidazoline receptor binding affinity was determined from radioligand binding of ^3 H-clonidine (NEN, Boston, Mass.) to bovine VLM membranes. Specific activity of ^3 H-clonidine was 43 Ci/mmol. Kd of ^3 H-clonidine binding to the I1 imidazoline receptor was determined by saturation experiments and Ki of other ligands studied were determined by competition experiments. The radioligand binding assay was performed in Teflon 96-wells with the Biomek-1000 robotics (Beckman Instruments, Fullerton, Calif.). Each well contained […] ^3 H-Clonidine and 0.3 to 0.5 mg of bovine VLM protein in 5 mM HEPES buffer containing 0.5 mM EGTA and 0.5 mM MgCl2, pH 7.4 (0.1 mM ascorbic acid was added just before the protein). After 50 min of incubation at 25° C., the reaction was terminated by rapid filtration over Whatman GF/B filters treated with 0.1% polyethyleneimine and washed with 12 ml ice cold 50 mM Tris-HCl, pH 7.4 at 4° C. in a Brandel Harvester (Brandel, Gaithersburg, Md.). Both `hot` and `cold` saturation experiments were performed. In `hot` saturation experiments, studies were performed with ^3 H-clonidine ranging from 0.1 to 50 nM. In `cold` saturation experiments, studies were performed with 2 nM ^3 H-clonidine with 20 different concentrations of the unlabeled clonidine, ranging from 0.1 nM to 1 uM unlabeled clonidine. Non specific binding was defined by parallel incubations containing 10^-5 M phentolamine or naphazoline. Imidazoline binding was determined by parallel incubations in which the alpha-adrenergic sites were masked with 10^-5 M norepinephrine. During competition experiments, ligands of 20 concentrations ranged from 10^-11 to 10^-4 were used. Radioactivity was counted in a Beckman LS-3801 scintillation counter. Data were captured and analyzed with Accufit saturation and competition softwares modeled both for one-site and two-site fits (Beckman Instruments, Fullerton, Calif.) using an IBM compatible computer. All experiments were repeated at least twice.

The next series concerns the target I2A. The experiment in a line: Receptor binding, I2A.
For a further series, the target named is α1. Put plainly: Receptor binding, [3H]prazosin, human cerebral cortex membranes (HCC). The note with it: 22° C., 30 min. As to the method: Tissue preparation: Membrane suspensions were prepared from human cerebral cortex ([…], for α1 receptors) obtained from the UCI Organ and Tissue Bank. Briefly, tissues (1 g) were homogenized in 25 mL of ice-cold 5 mM Tris, pH 7.4 with a Polytron homogenizer for 30 sec at setting #7, and centrifuged for
10-12 minutes at 300× g at 4° C. The supernatant was filtered through 2 layers of gauze and diluted 1:2 with 50 mM Tris-HCl buffer, pH 7.4, then centrifuged at 49,000× g for 20 minutes. The pellet fraction was washed 3 times (resuspended in Tris-HCl buffer and centrifuged for 20 minutes; at 49,000× g). The pellet was then stored at -80° C. until the binding assay.
(§1) Binding Studies: The radioligands [^3 H]rauwolscine (specific activity 80 Ci/mmol) and [^3 H]prazosin (specific activity 76 Ci/mmol) were obtained from New England Nuclear, Boston, Mass. Frozen membrane pellet was resuspended in 25 mM glycine/glycine, pH 7.5 and incubated with radioligand under the following conditions: CHO-C10, CHO-RNG, CHO-C4-[^3 H]rauwolscine, 22° C., 30 minutes; RKC-[^3 H]rauwolscine, 0° C., 120 minutes; and, HCC-[^3 H]prazosin, 22° C., 30 minutes in a final volume of 500 ul. At the end of the incubation period, the samples were filtered through glass filters (Whatman GF/B) in a 96 well cell harvester and rapidly washed four times with 4 mL of iced-cold 50 mM Tris-HCl buffer. The filters were then oven dried and transferred to scintillation vials containing 10 mL of Beckman's Ready Protein® scintillation cocktail for counting. […] Protein concentrations were determined with a protein assay kit from Bio Rad. Binding isotherms, equilibrium dissociation and affinity constants were analyzed and determined by the non-linear least squares curve fitting programs EBDA (BioSoft) or AccuFit Competition/Saturation by Beckman.
(§2) The radioligands [^3 H] rauwolscine (specific activity 80 Ci/mmol) and [^3 H] prazosin (specific activity 76 Ci/mmol) were obtained from New England Nuclear, Boston, Mass. Frozen membrane pellet was resuspended in 25 mM glycine/glycine, pH 7.4 and incubated with radioligand under the following conditions: CHO-C10, CHO-RNG, CHO-C4-[^3 H]rauwolscine, 22° C., 30 min.; and, HCC-[^3 H]prazowsin, 22° C., 30 minutes in a final volume of 500 ul. At the end of the incubation period, the samples were filtered through glass fiber filters (Whatman GF/B) in a 96 well cell harvester and rapidly washed four times which 4 mL of iced-cold 50 mM Tris-CHI buffer. The filters were then oven dried and transferred to scintillation vials containing 5 mL of Beckman's Ready Protein® scintillation cocktail for counting. […] Protein concentrations were determined with a protein assay kit from Bio lad. Binding isotherms, equilibrium dissociation and affinity constants were analyzed and determined by the non-linear least squares curve fitting programs AccuFit Competition/Saturation by Beckman.
(§3) Representative compounds of the present invention were tested according to the procedures given above. […] The receptor binding studies and K1 are measures of the affinity of a compound for a particular receptor.

For the next series, the target named is T1, human α2C (Homo sapiens, UniProt P18825).
T1 construct: expressed in transfected cells; host or cells: CHO cells (CHO-C4)
T1 sequence (P18825 1-462): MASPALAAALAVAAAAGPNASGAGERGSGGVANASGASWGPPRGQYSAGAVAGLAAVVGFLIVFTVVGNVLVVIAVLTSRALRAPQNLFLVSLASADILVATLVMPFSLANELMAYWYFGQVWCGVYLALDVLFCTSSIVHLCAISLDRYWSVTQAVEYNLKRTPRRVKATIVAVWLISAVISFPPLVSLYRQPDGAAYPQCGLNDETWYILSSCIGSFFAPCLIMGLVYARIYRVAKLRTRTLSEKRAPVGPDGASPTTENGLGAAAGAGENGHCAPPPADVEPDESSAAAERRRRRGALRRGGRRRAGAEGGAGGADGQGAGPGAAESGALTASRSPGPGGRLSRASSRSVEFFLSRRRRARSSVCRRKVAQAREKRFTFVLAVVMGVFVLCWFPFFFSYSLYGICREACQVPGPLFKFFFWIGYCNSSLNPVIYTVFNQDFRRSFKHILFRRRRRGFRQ
Put plainly: Receptor binding, [3H]rauwolscine, CHO-C4 cells expressing human α2C. The note with it: CHO-C4, 22° C., 30 min. As to the method: Cell preparation: Chinese hamster ovary (CHO) cells expressing the human α2A and human α2C (CHO-C10 and CHO-C4 respectively) receptors and CHO cells (CHO-RNG) expressing the rat α2B, adrenoceptor were grown to near confluence in Dulbecco's modified Eagle's medium supplemented with 10% fetal bovine serum using standard cell culture methods. Cells were harvested by scraping and placed into cold buffer of the following composition: 50 mM Tris-HCl, 5 mM EDTA, pH 7.4). […] The pellet fraction was washed (resuspended in Tris-HCl, pH 8 buffer and centrifuged for 15-20 minutes at 49,000× g) 2 times and stored at -100° until binding assay.
as §1, §2, §3

The conditions of series [1]: rabbit, in vivo.
A further series concerns α2 receptors. The following applies: cited from earlier work.
Series [2] deals with imidazoline receptors and α2 adrenoceptors. The following applies: cited from earlier work.
The conditions of series [3]: cited from earlier work.
The subject of another series is α2A. The note with it: cited from earlier work.
In another series the test system is α1 receptors. The following applies: prazosin vs yohimbine; cited from earlier work.

In the case of `Clc1cccc(Cl)c1NC1=NCCN1` [Example 2], the results for the pKi on I2B, on I1 imidazoline receptor and at I2A were 4.90, 8.05 and 5.00, respectively.

For the compound `Brc1c(NC2=NCCN2)ccc2nccnc12` [Example 5], the pKi on I2B was 6.21; on I1 imidazoline receptor, 7.77; at I2A, 5.14; on α1, 5.73.

`COc1nc(C)nc(Cl)c1NC1=NCCN1` [Example 6]: the pKi is 4.00 at I2B, 7.25 on I1 imidazoline receptor, 4.00 on I2A and 4.41 at α1.

Consider `Cc1c(Nc2ncc[nH]2)ccc2c1NCCO2` [Example 17], for which the pKi was 5.03 at I2B, 5.28 at I1 imidazoline receptor, 4.57 at I2A and 4.83 at α1.

As to `COc1ccc(Nc2ncc[nH]2)c(C)c1` [Example 19], the pKi on I2B is 6.75; on I1 imidazoline receptor, 7.89; on I2A, 5.21; on α1, 5.12.

With `Cc1c(Nc2ncc[nH]2)ccc2c1OCCO2` [Example 21], the pKi is 6.16 at I2B, 6.35 on I1 imidazoline receptor, 5.11 at I2A and 5.67 at α1.

Consider `Cc1cc(C(C)(C)C)c(O)c(C)c1CC1=NCCN1` [Example 23], for which the pKi is 5.57 on I2B, 5.13 on I1 imidazoline receptor, 4.89 at I2A and 6.70 on α1.

For the compound `Cc1c(Nc2ncc[nH]2)ccc2nccnc12` [Example 24], the pKi was 6.67 at human α2C; 7.44 at I2B; 6.64 at I1 imidazoline receptor; 5.20 on I2A; 4.51 on α1.

Take `Clc1cccc(Cl)c1N=C1NCCN1` [clonidine]: the “IOP of the untreated eye (systemic effect)” value in series [1] is listed as “the IOP of the untreated eye is lowered to the same extent as the treated eye”. Also, the “α2 adrenergic mechanism of action (in words)” value in the series with α2 receptors is on record as “centrally acting α2 adrenergic partial agonist”. Moreover, the “binding to α2 and imidazoline receptors (in words)” value in series [2] is “binds to both α2 and imidazoline receptors”. The “cardiovascular effect (in words)” value in series [3] (in vivo) is “hypotensive cardiovascular effects”.

Consider `Cc1cccc([C@H](C)c2cnc[nH]2)c1C` [dexmedetomidine], for which the “α2A selectivity (in words)” value in the series on α2A is given as “a2A selective”.

With `COc1cc2nc(N3CCN(C(=O)c4ccco4)CC3)nc(N)c2cc1OC` [prazosin], in the series on α1 receptors, the “relative potency at α1 receptors (in words)” value is on record as “more potent that yohimbine”.

For `C1COC(NC(C2CC2)C2CC2)=N1` [rilmenidine], the “selectivity for imidazoline receptors (in words)” value in series [2] is listed as “more selective for imidazoline receptors than for α2 -adrenoceptors”. In addition, the “side effects compared to clonidine” value in series [3] (equihypotensive doses) was “less bradycardia and reduction in cardiac output, less sedation, and little or no antinociceptive action compared to clonidine”.

Take `COC(=O)[C@@H]1[C@H]2C[C@H]3c4[nH]c5ccccc5c4CCN3C[C@@H]2CC[C@@H]1O` [yohimbine]: the “relative potency at α2 receptors (in words)” value in the series on α2 receptors (yohimbine vs prazosin) is “more potent than prazosin”.

In general, pKi refers to −log10 of the Ki, conventionally taken in molar units. Read a low pKi as a large Ki.
